Results as given in the supplement of paper PMC10307832.

How the values were obtained:
Experiment in all cases: relative viability (nuclei count vs DMSO), 5 days (fraction); higher = more cells survive
[1] = compound: C[C@]12O[C@H](C[C@]1(O)CO)n1c3ccccc3c3c4c(c5c6ccccc6n2c5c31)CNC4=O [Lestaurtinib] + CCNC(=O)c1noc(-c2cc(C(C)C)c(O)cc2O)c1-c1ccc(CN2CCOCC2)cc1 [Luminespib] (partner 0.01 µM)
How it was run: (§1)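 For relative viability, nuclei counts in treated wells were divided by those in vehicle wells. Lung cancer cell lines had been pin-tool dosed in 1536-well plates the day after seeding and cultured for 5 days, then fixed and stained in one step (final 0.05% Triton X-100, 1% formaldehyde, 1 ug/ml Hoechst) and imaged at 4×. Doses were one drug alone or a fixed anchor-drug dose plus five library-drug doses (not always all listed) in √10 steps, and values are duplicate-plate medians.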

[2] = compound: C[C@]12O[C@H](C[C@]1(O)CO)n1c3ccccc3c3c4c(c5c6ccccc6n2c5c31)CNC4=O [Lestaurtinib] + C[C@@H](Oc1cc(-c2cnn(C3CCNCC3)c2)cnc1N)c1c(Cl)ccc(F)c1Cl [Crizotinib] (partner 1 µM)
How it was run: as §1

TPCA-1 + Crizotinib = compound: C1=CC(=CC=C1C2=CC(=C(S2)NC(=O)N)C(=O)N)F [TPCA-1] + C[C@@H](Oc1cc(-c2cnn(C3CCNCC3)c2)cnc1N)c1c(Cl)ccc(F)c1Cl [Crizotinib] (partner 1 µM)
How it was run: as §1

[3] = compound: C[C@]12O[C@H](C[C@]1(O)CO)n1c3ccccc3c3c4c(c5c6ccccc6n2c5c31)CNC4=O [Lestaurtinib] + Nc1nc2[nH]cc(CCc3ccc(C(=O)N[C@@H](CCC(=O)O)C(=O)O)cc3)c2c(=O)[nH]1 [Pemetrexed] (partner 0.2 µM)
How it was run: as §1

Cell Line	relative viability ([1]; first compound 0.005 µM)	relative viability ([1]; first compound 0.01581 µM)	relative viability ([1]; first compound 0.05 µM)	relative viability ([1]; first compound 0.1581 µM)	relative viability ([1]; first compound 0.5 µM)	relative viability ([2]; first compound 0.005 µM)	relative viability ([2]; first compound 0.01581 µM)	relative viability ([2]; first compound 0.05 µM)	relative viability ([2]; first compound 0.1581 µM)	relative viability ([2]; first compound 0.5 µM)	relative viability (TPCA-1 + Crizotinib; first compound 0.04 µM)	relative viability (TPCA-1 + Crizotinib; first compound 0.1265 µM)	relative viability (TPCA-1 + Crizotinib; first compound 0.4 µM)	relative viability (TPCA-1 + Crizotinib; first compound 1.265 µM)	relative viability (TPCA-1 + Crizotinib; first compound 4 µM)	relative viability ([3]; first compound 0.005 µM)	relative viability ([3]; first compound 0.01581 µM)	relative viability ([3]; first compound 0.05 µM)	relative viability ([3]; first compound 0.1581 µM)	relative viability ([3]; first compound 0.5 µM)
LK-2	0.202	0.19	0.17	0.208	0.203	0.241	0.264	0.267	0.188	0.188	0.22	0.229	0.289	0.206	0.313	0.302	0.444	0.255	0.302	0.139
LOU-NH91	0.341	0.262	0.254	0.301	0.224	0.755	0.718	0.627	0.547	0.469	0.724	0.736	0.726	0.731	0.656	0.413	0.509	0.448	0.583	0.338
LU99A	0.235	0.245	0.221	0.249	0.185	0.606	0.49	0.275	0.314	0.162	0.613	0.534	0.47	0.506	0.249	0.152	0.153	0.217	0.14	0.128
NCI-H522	1.3	1.01	1.08	1.03	0.699	–	–	–	–	–	–	–	–	–	–	1.01	1.08	1.01	0.784	0.502
NCI-H727	0.478	0.401	0.427	0.284	0.387	1.26	0.911	0.718	0.613	0.323	0.82	0.677	1.05	0.64	0.706	–	–	–	–	–
NCI-H1299	–	–	–	–	–	0.912	0.953	0.542	0.68	0.467	0.95	0.943	0.907	0.972	0.948	–	–	–	–	–
NCI-H1395	0.654	0.668	0.616	0.472	0.374	–	–	–	–	–	–	–	–	–	–	0.788	1.03	0.559	0.775	0.379
NCI-H1623	0.6	0.617	0.406	0.352	0.444	–	–	–	–	–	–	–	–	–	–	–	–	–	–	–
NCI-H1648	–	–	–	–	–	–	–	–	–	–	–	–	–	–	–	–	0.806	–	1	0.606
NCI-H1703	–	–	–	–	–	0.81	0.524	0.263	0.257	0.0934	0.585	0.57	0.594	0.396	0.459	–	–	–	–	–
NCI-H1793	0.193	0.249	0.156	0.154	0.161	–	–	–	–	–	–	–	–	–	–	0.809	0.911	0.544	0.692	0.541
NCI-H2342	0.779	0.624	0.651	0.738	0.7	–	–	–	–	–	–	–	–	–	–	0.74	0.773	0.796	0.858	0.6
SW 900	0.172	0.146	0.151	0.159	0.178	–	–	–	–	–	–	–	–	–	–	0.517	0.538	0.487	0.532	0.441
